pIC50: −log10 of the molar value. Where “and” joins values, the source holds several entries; their conditions need not be identical. Equal values may be shown once.
Columns and labels:
[1] = target: T1, Cav3.2 (Homo sapiens, UniProt O95180); assay: FLIPR calcium 5 assay, inhibition of 10 mM Ca-induced fluorescence; type: cell-based; settings: for % Inhibition of Fluorescence Cav3.2: 10 µM compound, 10 mM Ca-induced fluorescence, HEK293 cells, mean ± SEM; for pIC50: FLIPR concentration-response, HEK293 Cav3.2 cells, read-out: IC50, inhibition of change in fluorescence, Cav3.2
T1 construct: expressed in transfected cells; host or cells: HEK293 Flp-In T-REx
T1 sequence (O95180 whole entry): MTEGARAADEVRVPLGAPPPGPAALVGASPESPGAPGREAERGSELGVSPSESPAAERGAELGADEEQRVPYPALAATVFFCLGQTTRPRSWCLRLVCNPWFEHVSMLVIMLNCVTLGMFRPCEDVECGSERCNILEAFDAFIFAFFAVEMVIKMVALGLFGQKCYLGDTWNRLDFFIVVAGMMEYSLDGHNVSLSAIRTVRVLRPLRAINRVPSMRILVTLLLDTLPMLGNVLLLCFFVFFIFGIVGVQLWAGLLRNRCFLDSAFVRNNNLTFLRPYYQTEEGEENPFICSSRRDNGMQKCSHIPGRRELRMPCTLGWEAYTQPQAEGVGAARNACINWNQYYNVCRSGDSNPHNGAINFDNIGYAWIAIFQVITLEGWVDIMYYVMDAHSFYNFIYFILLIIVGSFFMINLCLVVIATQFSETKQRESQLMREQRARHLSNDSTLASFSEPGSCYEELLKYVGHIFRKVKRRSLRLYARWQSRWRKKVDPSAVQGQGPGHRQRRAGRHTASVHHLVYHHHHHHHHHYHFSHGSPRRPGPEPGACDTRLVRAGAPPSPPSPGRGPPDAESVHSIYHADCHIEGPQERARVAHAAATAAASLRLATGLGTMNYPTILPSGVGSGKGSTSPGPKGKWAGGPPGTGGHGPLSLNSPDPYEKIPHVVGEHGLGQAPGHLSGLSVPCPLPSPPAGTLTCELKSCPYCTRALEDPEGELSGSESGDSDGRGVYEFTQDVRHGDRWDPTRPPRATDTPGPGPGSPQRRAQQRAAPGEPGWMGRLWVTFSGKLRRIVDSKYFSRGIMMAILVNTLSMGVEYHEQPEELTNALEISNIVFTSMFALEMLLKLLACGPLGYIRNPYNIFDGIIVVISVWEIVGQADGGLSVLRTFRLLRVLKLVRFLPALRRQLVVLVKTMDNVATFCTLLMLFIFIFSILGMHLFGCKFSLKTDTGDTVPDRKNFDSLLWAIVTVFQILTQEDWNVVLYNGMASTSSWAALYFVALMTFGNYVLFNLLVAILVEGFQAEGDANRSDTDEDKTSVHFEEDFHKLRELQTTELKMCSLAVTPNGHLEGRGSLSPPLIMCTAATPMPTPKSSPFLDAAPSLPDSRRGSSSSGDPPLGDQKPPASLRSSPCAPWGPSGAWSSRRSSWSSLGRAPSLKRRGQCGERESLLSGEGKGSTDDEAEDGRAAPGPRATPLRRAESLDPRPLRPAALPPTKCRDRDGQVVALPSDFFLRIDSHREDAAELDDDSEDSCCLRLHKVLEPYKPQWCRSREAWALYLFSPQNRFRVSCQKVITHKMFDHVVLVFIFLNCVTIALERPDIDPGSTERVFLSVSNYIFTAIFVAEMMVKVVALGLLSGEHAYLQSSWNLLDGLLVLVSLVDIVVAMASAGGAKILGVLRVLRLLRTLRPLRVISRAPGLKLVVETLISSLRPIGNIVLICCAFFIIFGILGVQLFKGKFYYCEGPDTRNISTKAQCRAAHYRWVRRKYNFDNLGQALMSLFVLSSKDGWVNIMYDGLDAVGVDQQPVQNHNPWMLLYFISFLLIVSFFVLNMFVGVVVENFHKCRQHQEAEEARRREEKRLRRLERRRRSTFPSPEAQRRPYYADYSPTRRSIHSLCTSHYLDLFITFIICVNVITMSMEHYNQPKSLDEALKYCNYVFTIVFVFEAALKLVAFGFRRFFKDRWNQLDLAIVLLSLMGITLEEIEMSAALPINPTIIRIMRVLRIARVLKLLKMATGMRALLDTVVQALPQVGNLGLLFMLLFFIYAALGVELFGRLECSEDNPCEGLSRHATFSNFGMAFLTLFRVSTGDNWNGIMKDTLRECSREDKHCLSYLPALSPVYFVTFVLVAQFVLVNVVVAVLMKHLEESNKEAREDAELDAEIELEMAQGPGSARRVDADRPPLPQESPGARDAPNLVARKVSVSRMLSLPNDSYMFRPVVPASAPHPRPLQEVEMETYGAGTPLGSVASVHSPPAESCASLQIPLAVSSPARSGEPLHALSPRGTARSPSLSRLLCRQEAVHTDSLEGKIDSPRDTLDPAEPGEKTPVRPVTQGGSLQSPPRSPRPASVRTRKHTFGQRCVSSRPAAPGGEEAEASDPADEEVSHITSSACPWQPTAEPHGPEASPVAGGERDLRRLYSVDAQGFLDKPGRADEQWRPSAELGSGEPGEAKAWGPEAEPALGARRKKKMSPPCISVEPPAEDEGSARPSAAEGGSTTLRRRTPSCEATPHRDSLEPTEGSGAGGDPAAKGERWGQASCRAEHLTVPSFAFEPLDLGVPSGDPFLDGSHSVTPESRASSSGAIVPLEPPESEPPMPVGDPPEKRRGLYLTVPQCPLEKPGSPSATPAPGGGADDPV
Method: (§1) Calcium 5 dye (Molecular Devices, United States ) was used to investigate compound activities at T-type calcium channels using Flexstation III. HEK293 cells overexpressing Cav3.1, Cav 3.2, and Cav 3.3 cells were resuspended in Leibovitz’s L-15 media containing 1% FBS, 1% P/S and 15 mM glucose. 90 µl of the resuspended cells (120,000 cells/well) were plated in a black-walled, 96-well microplate (Corning, NY, United States ) and incubated overnight in humidified air at 37°C. Channel expression was induced with tetracycline (2 μg/ml, Sigma-Aldrich) at plating. On the day of the assay, 90 µl of HBSS containing 5% Calcium dye (bulk kit) and 2.5 mM probenecid (Invitrogen, United States ) was added to each well and incubated for 1 h at 37°C. Change in fluorescence was measured in a FlexStation III plate reader every 2 s (ʎexcitation = 485 nm, ʎemission = 525 nm) for the duration of the experiment at 37°C. After 2 min baseline recording, drugs (20 µL) were added and read for 5 min, followed by 10 mM CaCl2 (20 µl) and read for a further 3 min.
(§2) Unless otherwise stated, five independent experiments were performed for each condition, with each experiment conducted in duplicate. For the calcium assay, change in fluorescence by 10 mM Ca in the presence of drugs was normalised to change in fluorescence caused by 10 mM Ca in the presence of vehicle only to allow for comparison. In the Alphascreen assay, results were normalised to EC80 of ML-186 after subtraction of basal ERK phosphorylation (presence of a vehicle and 0.2% DMSO) to allow for easy comparison between phytocannabinoid activities. We fitted all concentration-response curves to a 4-parameter sigmoidal inhibitory response curve in GraphPad Prism (Version 6 GraphPad Software Inc., CA, United States) to derive IC50 and Emax values. All statistical analyses were conducted with GraphPad Prism. Two-tailed, unpaired t-tests were used to compare two data points and one-way ANOVA for more than two data points with Tukey post-hoc analysis. p-values < 0.05 were considered statistically significant.
(§3) Our investigation of T-type channels began with a single-point screen, as described by [Bladen et al. (2021)]. We screened the inhibitory effect of 10 µM phytocannabinoids on the change in fluorescence elicited by the addition of 10 mM Ca^2+ in cells expressing Cav3.1, Cav3.2 or Cav3.3 channels ([Xie et al., 2007]; [Bladen et al., 2021]).

[2] = target: T2, Cav3.3 (Homo sapiens, UniProt Q9P0X4); assay: as above; type: cell-based; settings: 10 µM compound, HEK293 cells, mean ± SEM
T2 construct: expressed in transfected cells; host or cells: HEK293 Flp-In T-REx
T2 sequence (Q9P0X4 whole entry): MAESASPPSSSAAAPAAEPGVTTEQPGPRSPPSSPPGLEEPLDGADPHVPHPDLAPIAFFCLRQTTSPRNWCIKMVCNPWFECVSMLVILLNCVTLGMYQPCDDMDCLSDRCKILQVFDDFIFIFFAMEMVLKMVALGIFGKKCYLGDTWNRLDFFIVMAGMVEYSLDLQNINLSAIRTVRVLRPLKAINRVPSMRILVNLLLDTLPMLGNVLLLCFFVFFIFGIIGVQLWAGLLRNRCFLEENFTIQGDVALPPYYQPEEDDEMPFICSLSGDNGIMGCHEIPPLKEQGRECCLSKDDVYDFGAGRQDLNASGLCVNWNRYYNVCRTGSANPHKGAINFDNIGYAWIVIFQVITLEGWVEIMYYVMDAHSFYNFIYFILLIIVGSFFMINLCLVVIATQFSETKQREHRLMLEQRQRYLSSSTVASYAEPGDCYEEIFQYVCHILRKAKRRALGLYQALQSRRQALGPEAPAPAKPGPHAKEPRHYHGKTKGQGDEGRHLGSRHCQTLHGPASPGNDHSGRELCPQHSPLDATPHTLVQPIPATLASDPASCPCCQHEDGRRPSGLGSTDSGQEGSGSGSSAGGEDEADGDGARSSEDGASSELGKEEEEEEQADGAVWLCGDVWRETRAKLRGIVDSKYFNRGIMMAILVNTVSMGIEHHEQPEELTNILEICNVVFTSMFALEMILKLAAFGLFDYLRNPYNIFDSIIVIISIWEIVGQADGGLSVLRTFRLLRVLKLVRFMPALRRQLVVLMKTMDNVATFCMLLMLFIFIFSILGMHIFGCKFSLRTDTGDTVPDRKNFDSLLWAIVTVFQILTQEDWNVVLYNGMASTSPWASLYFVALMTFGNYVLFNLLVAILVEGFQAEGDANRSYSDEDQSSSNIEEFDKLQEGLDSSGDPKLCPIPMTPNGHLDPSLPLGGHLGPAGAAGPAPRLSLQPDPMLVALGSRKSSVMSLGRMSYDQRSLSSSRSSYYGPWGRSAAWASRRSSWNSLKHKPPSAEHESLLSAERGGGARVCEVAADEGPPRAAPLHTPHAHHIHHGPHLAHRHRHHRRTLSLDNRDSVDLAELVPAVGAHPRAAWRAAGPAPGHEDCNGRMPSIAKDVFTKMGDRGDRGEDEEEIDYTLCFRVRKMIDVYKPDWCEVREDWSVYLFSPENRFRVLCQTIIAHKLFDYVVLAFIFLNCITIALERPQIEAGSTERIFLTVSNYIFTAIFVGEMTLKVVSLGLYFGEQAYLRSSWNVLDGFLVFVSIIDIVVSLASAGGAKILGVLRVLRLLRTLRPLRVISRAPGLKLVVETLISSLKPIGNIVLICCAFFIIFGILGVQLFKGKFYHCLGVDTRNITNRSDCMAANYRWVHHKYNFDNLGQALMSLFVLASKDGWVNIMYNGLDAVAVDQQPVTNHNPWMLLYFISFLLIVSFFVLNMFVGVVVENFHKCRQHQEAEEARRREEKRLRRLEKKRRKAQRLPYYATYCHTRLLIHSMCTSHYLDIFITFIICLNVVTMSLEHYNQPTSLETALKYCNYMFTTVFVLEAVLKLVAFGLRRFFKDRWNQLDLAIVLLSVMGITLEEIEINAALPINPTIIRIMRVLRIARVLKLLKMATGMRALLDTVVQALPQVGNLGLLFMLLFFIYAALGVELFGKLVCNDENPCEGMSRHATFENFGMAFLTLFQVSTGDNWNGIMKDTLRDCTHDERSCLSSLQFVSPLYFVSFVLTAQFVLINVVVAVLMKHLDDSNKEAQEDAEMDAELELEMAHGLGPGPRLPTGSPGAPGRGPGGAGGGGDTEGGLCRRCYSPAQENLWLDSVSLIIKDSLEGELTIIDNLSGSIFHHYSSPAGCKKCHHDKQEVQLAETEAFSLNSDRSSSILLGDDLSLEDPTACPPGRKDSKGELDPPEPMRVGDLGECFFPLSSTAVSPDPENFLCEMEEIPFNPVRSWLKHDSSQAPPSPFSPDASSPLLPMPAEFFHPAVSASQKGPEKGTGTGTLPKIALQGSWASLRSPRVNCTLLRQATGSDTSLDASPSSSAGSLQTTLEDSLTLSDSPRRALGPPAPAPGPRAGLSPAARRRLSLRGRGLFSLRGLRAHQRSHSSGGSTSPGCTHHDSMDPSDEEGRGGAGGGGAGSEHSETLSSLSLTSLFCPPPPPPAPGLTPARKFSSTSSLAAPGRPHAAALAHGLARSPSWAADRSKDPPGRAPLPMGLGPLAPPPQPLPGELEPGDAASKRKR
Method: as §1, §2, §3

[3] = target: T3, Cav3.1 (Homo sapiens, UniProt O43497); assay: as above; type: cell-based; settings: for pIC50: FLIPR concentration-response, HEK293 Cav3.1 cells, read-out: IC50, inhibition of change in fluorescence, Cav3.1; for % Inhibition of Fluorescence Cav3.1: 10 µM compound, 10 mM Ca-induced fluorescence, HEK293 cells, mean ± SEM
T3 construct: expressed in transfected cells; host or cells: HEK293 Flp-In T-REx
Method: as §1, §2, §3

[4] = target: T3, Cav3.1; assay: Whole-cell voltage-clamp electrophysiology in HEK293 Flp-In T-REx cells; type: cell-based; settings: for V0.5 of voltage dependence of Cav3.1 activation / half-inactivation (V0.5), steady-state inactivation of Cav3.1: 5 µM compound; for Cav3.1 relative current at 50th action potential, % of first / inhibition of Cav3.1 peak current, second test pulse (P2), slow inactivated state / inhibition of Cav3.1 peak current, first test pulse (P1): 5 µM; for inhibition of Cav3.1 peak current, second test pulse (P2), slow inactivated state / inhibition of Cav3.1 peak current, first test pulse (P1): 2-pulse voltage protocol; for inhibition of Cav3.1 peak current, second test pulse (P2), slow inactivated state: after 10 s pre-conditioning pulse to −80 mV; for inhibition of Cav3.1 peak current, first test pulse (P1): before slow inactivation; for pIC50: patch clamp, step −100 mV to −30 mV every 12 s, read-out: IC50, tonic inhibition of Cav3.1 current amplitude
Method: All whole-cell voltage-clamp recordings from HEK293 Flp-In T-REx cells stably transfected with human Cav3.1, Cav 3.2 and Cav 3.3 were performed at room temperature. At least 24 h prior to experiments, cells were detached from flasks using trypsin/EDTA and plated into 10 cm sterile tissue culture dishes containing 10 ml of supplemented DMEM and 10–15 glass coverslips (12 mm diameter, ProScitech, QLD, Australia). Culture dishes were then kept overnight in same conditions as flasks to allow cells to adhere to coverslips. They were then transferred to a 30°C/5% CO2 incubator to inhibit cell proliferation until ready to be used for electrophysiology experiments. At this stage, channel expression was induced with tetracycline (2 μg/ml, Sigma-Aldrich) 8–24 h prior to recording cells.
External recording solutions contained (in mM): 114 CsCl, 5 BaCl2, 1 MgCl2, 10 HEPES, 10 glucose, adjusted to pH 7.4 with CsOH. The internal patch pipette solution contained (in mM): 126.5 CsMeSO4, 2 MgCl2, 11 EGTA, 10 HEPES adjusted to pH 7.3 with CsOH. Internal solution was supplemented with 0.6 mM GTP and 2 mM ATP and mixed thoroughly just before use. Liquid junction potentials for the above solutions were calculated before experiments using pClamp 10 software and corrected during experiments. Compounds were prepared daily from 30 mM DMSO stocks and diluted into an external solution just before use. Compounds were then applied rapidly and locally to the cells using a custom-built gravity-driven micro-perfusion system ([Feng et al., 2003]). […] Currents were elicited from a holding potential of -100 mV and were measured by conventional whole-cell patch clamp techniques using an Axopatch 200B amplifier in combination with Clampex 9.2 software. (Molecular Devices, Sunnyvale, CA). After establishing whole cell configuration, cellular capacitance was minimised using the amplifier’s built-in analogue compensation. Series resistance was kept to <10 MΩ and was compensated to at least 85% in all experiments. All data were digitised at 10 kHz with a Digidata 1,320 interface (Molecular Devices) and filtered at 1 kHz (8-pole Bessel filter). Raw and online leak-subtracted data were both collected simultaneously, P/N4 leak subtraction was performed using opposite polarity and after the protocol sweep.
For tonic inhibition of T-type currents, membrane potential was stepped from −100 mV to −30 mV for 200 ms and then allowed to recover for 12 s (1 sweep). A minimum of 10 sweeps were collected under vehicle control external perfusion to allow for control peak current to equilibrate. The drug was then continuously perfused, and sweeps were recorded until no further inhibition was seen (minimum of 3 sweeps with the same amplitude). In current-voltage relation studies, the membrane potential was held at −100 mV and cells were depolarised from −70 to 50 mV in 10 mV increments. For steady-state inactivation studies, a 3.6 s conditioning pre-pulse of various magnitudes (initial holding at −110 mV) was followed by a depolarising pulse to −30 mV. Individual sweeps were separated by 12 s to permit recovery from inactivation between conditioning pulses. The duration of the test pulse was typically 20 ms, and the current amplitude obtained from each test pulse was normalised to that observed at the holding potential of −100 mV.
The effect of CBGVA and CBDVA (5 µM each) on slow inactivation was tested using a 2-pulse voltage protocol as described in Bladen et al., (2021). Briefly, cells expressing Cav3.1 were initially depolarised with a 200 ms test pulse from -120 mV to −30 mV to generate peak current (P1) and followed by a 10 s pre-conditioning pulse to −80 mV to reverse fast inactivation. Cells were further depolarised with another 200 ms test pulse from −120 to −30 mV (P2) (Figure 2 inset).
THC and CBD cause substantial frequency-dependent inhibition of Cav3.2 and Nav1.8 channels, respectively ([Ross et al., 2008]; [Bladen et al., 2021]; [Zhang and Bean, 2021]). […]

[5] = target: T4, GPR55 (Homo sapiens, UniProt Q9Y2T6); assay: Alphascreen ERK phosphorylation assay, antagonism of ML-186-induced ERK phosphorylation; type: cell-based; settings: in the presence of EC80 of ML-186 (0.45 µM), HEK 293 GPR55 cells
T4 construct: expressed in transfected cells; host or cells: HEK 293
T4 sequence (Q9Y2T6 whole entry, species assumed): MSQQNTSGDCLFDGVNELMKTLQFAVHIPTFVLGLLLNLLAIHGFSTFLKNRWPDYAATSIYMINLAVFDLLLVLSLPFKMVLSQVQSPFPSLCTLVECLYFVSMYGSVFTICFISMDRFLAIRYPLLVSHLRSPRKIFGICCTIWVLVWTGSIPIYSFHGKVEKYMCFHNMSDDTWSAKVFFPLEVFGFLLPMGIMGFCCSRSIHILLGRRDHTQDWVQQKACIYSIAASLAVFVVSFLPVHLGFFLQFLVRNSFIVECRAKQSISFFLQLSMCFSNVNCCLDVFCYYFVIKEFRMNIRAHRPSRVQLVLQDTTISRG
Method: as §2

[6] = Plasma and brain exposure at anticonvulsant doses in mice (literature); type: in vivo; settings: from peak plasma concentration and brain-plasma ratio
[7] = ref Anderson et al., cited from earlier work; for Peak plasma concentration: anticonvulsant doses in mice, 2021b; for brain-plasma ratio: 2019
[8] = tested on: hyperthermia-induced seizures; parameters: method as in earlier work; settings: Scn1a+/- mice, ref Anderson et al., 2019, 2021a, 2021b; cited from earlier work
[9] = tested on: Cav3.1; parameters: method as in Ross et al., 2008; settings: ref Ross et al., 2008; read-out: IC50, inhibition of peak Cav3.1 currents; cited from earlier work
[10] = tested on: Cav3.2; parameters: method as in Ross et al., 2008; settings: ref Ross et al., 2008; read-out: IC50, inhibition of peak Cav3.2 currents; cited from earlier work
[11] = tested on: dorsal root ganglion neurons; parameters: method as in Straiker et al., 2021; settings: ref Straiker et al., 2021; cited from earlier work
[12] = tested on: diacylglycerol lipase; parameters: method as in de Petrocellis et al., 2011; settings: ref de Petrocellis et al., 2011; cited from earlier work
[13] = tested on: autaptic hippocampal neurons; parameters: method as in Straiker et al., 2021; settings: ref Straiker et al., 2021; cited from earlier work

Compound: CCCc1cc(O)c2c(c1)OC(C)(CCC=C(C)C)C=C2 (centres unmarked) [CBCV]
- % Inhibition of Fluorescence Cav3.2 [1]: -37 ± 21%
- effect on influx of Ca2+ ions in cells expressing Cav3.2 ([1]; 10 µM, FLIPR): appeared to increase the influx of Ca^2+ ions
- % Inhibition of Fluorescence Cav3.3 [2]: 1 ± 1%

Compound: CCCc1cc(O)c(C/C=C(\C)CCC=C(C)C)c(O)c1C(=O)O [CBGVA, cannabigerovarinic acid]
- pIC50 [3]: 5.22
- pIC50 [1]: 5.70
- % Inhibition of Fluorescence Cav3.3 [2]: 35 ± 11%
- V0.5 of voltage dependence of Cav3.1 activation [4]: −49.1 ± 0.5 mV
- half-inactivation (V0.5), steady-state inactivation of Cav3.1 [4]: −82.1 ± 0.8 mV
- Cav3.1 relative current at 50th action potential, % of first ([4]; 0.4 Hz stimulation): 73 ± 3%
- Cav3.1 relative current at 50th action potential, % of first ([4]; 0.8 Hz stimulation): 88 ± 1%
- inhibition of Cav3.1 peak current, second test pulse (P2), slow inactivated state [4]: 72 ± 3%
- inhibition of Cav3.1 peak current, first test pulse (P1) [4]: 61 ± 3%
- Cav3.1 relative current at 50th action potential, % of first ([4]; 2.0 Hz stimulation): 77 ± 1%
- pIC50 [4]: 5.52
- pIC50 [5]: 5.10
- expected brain concentration [6]: 48 µM
- Peak plasma concentration [7]: approximately 1,200 µM
- brain-plasma ratio [7]: 4%
- effect against hyperthermia-induced seizures [8]: anticonvulsant

Compound: CCCc1cc2c(c(O)c1C(=O)O)C=CC(C)(CCC=C(C)C)O2 (centres unmarked) [CBCVA, cannabichrovarinic acid]
- % Inhibition of Fluorescence Cav3.1 [3]: 51 ± 8%
- % Inhibition of Fluorescence Cav3.2 [1]: 62 ± 8%
- % Inhibition of Fluorescence Cav3.3 [2]: 34 ± 12%
- effect against hyperthermia-induced seizures [8]: anticonvulsant

Compound: C=C(C)[C@@H]1CCC(C)=C[C@H]1c1c(O)cc(CCCCC)cc1O [CBD, cannabidiol]
- pIC50 [9]: ~6.00
- pIC50 [10]: ~6.00

Compound: CC(C)[C@H]1c2ccc(F)cc2CC[C@@]1(CCN(C)CCCc1nc2ccccc2[nH]1)OC(=O)C1CC1 [NNC550396, reference compound]
- % Inhibition of Fluorescence Cav3.1 [3]: 82 ± 8%
- pIC50 [3]: 6.14
- % Inhibition of Fluorescence Cav3.3 [2]: 89 ± 2%

Compound: CCCCCc1cc2c(c(O)c1C(=O)O)C=CC(C)(CCC=C(C)C)O2 (centres unmarked) [CBCA, cannabichromenic acid]
- % Inhibition of Fluorescence Cav3.1 [3]: 59 ± 9%
- % Inhibition of Fluorescence Cav3.3 [2]: 11 ± 10%
- effect against hyperthermia-induced seizures [8]: anticonvulsant

Compound: CCCc1cc(O)c(C/C=C(\C)CCC=C(C)C)c(O)c1 [CBGV]
- % Inhibition of Fluorescence Cav3.1 [3]: < 80% and 51 ± 14%
- % Inhibition of Fluorescence Cav3.3 [2]: 6 ± 3%

Compound: CCCCCc1cc(O)c(C/C=C(\C)CCC=C(C)C)c(O)c1C(=O)O [CBGA, cannabigerolic acid]
- effect against hyperthermia-induced seizures [8]: anticonvulsant

Compound: C=C(C)[C@@H]1CCC(C)=C[C@H]1c1c(O)cc(CCC)c(C(=O)O)c1O [CBDVA, cannabidivarinic acid]
- pIC50 [3]: 5.70
- pIC50 [1]: 4.96
- % Inhibition of Fluorescence Cav3.3 [2]: 8 ± 4%
- effect on calcium responses [11]: did not alter calcium responses
- V0.5 of voltage dependence of Cav3.1 activation [4]: −54.7 ± 1.2 mV
- half-inactivation (V0.5), steady-state inactivation of Cav3.1 [4]: −70.9 ± 0.5 mV
- Cav3.1 relative current at 50th action potential, % of first ([4]; 0.4 Hz stimulation): 90 ± 1%
- Cav3.1 relative current at 50th action potential, % of first ([4]; 0.8 Hz stimulation): 93 ± 1%
- inhibition of Cav3.1 peak current, second test pulse (P2), slow inactivated state [4]: 45 ± 5%
- inhibition of Cav3.1 peak current, first test pulse (P1) [4]: 35 ± 5%
- Cav3.1 relative current at 50th action potential, % of first ([4]; 2.0 Hz stimulation): 83 ± 1%
- pIC50 [4]: 5.15
- inhibition of diacylglycerol lipase [12]: inhibit the endocannabinoid synthetic enzyme diacylglycerol lipase at a relatively high concentration
- pIC50 [5]: 5.00
- expected brain concentration [6]: 5 µM
- effect on excitatory neurotransmission [13]: did not alter excitatory neurotransmission
- Peak plasma concentration [7]: ~239 µM
- brain-plasma ratio [7]: 2%
- effect against hyperthermia-induced seizures [8]: anticonvulsant
